Test results reported in ChEMBL document CHEMBL1147922, “Tetrahydroindazole inhibitors of bacterial type II topoisomerases. Part 2: SAR development and potency against multidrug-resistant strains” (Bioorg Med Chem Lett, 2007).
≈ marks a conversion by molar mass, not a printed value.

Columns and labels:
[1] = Inhibition of bacterial DNA topoisomerase 4
Staphylococcus aureus [2] = test: Antibacterial activity against ciprofloxacin resistant methicillin resistant Staphylococcus aureus OC4159; type: functional
Staphylococcus aureus [3] = test: Antibacterial activity against ciprofloxacin resistant methicillin resistant Staphylococcus aureus OC3946; type: functional
[4] = Inhibition of bacterial DNA gyrase
Staphylococcus aureus [5] = test: Antibacterial activity against ciprofloxacin resistant methicillin resistant Staphylococcus aureus OC5273; type: functional
Staphylococcus aureus [6] = test: Antibacterial activity against Staphylococcus aureus ATCC 13709; type: functional
Escherichia coli = test: Antibacterial activity against Escherichia coli KL16; type: functional
Streptococcus pneumoniae = test: Antibacterial activity against Streptococcus pneumoniae ATCC 49619; type: functional
Staphylococcus aureus [7] = test: Antibacterial activity against quinolone susceptible methicillin resistant Staphylococcus aureus OC2878; type: functional
Staphylococcus aureus [8] = test: Antibacterial activity against ciprofloxacin resistant methicillin resistant Staphylococcus aureus OC4222; type: functional

Row | SMILES | IC50 [1] [µg/mL] | IC50 [4] [µg/mL] | MIC (Staphylococcus aureus [6]) [µg/mL] | MIC (Escherichia coli) [µg/mL] | MIC (Streptococcus pneumoniae) [µg/mL] | MIC (Staphylococcus aureus [2]) [µg/mL] | MIC (Staphylococcus aureus [3]) [µg/mL] | MIC (Staphylococcus aureus [5]) [µg/mL] | MIC (Staphylococcus aureus [7]) [µg/mL] | MIC (Staphylococcus aureus [8]) [µg/mL]
1 | COc1ccc2nccc(-n3cc4c(n3)CCC(NCc3ccc5c(c3)NC(=O)CS5)C4)c2c1 (centres undefined) | 0.16 (≈ 0.339 µM) | 0.06 (≈ 0.127 µM) | 0.5 (≈ 1.06 µM) | 2 (≈ 4.24 µM) | 2 (≈ 4.24 µM) | 0.25 (≈ 0.53 µM) | 0.25 (≈ 0.53 µM) | 0.5 (≈ 1.06 µM) | 0.5 (≈ 1.06 µM) | 0.25 (≈ 0.53 µM)
2 | COc1ccc2nccc(-n3cc4c(n3)CCC(NCc3ccc5c(c3)NC(=O)CS5)C4)c2n1 (centres undefined) | 0.03 (≈ 0.0635 µM) | 0.125 (≈ 0.265 µM) | 0.25 (≈ 0.529 µM) | 1 (≈ 2.12 µM) | 1 (≈ 2.12 µM) | 0.25 (≈ 0.529 µM) | 0.125 (≈ 0.265 µM) | 0.5 (≈ 1.06 µM) | 0.5 (≈ 1.06 µM) | 0.125 (≈ 0.265 µM)
3 | O=C1CSc2ccc(C(=O)NC3CCc4nn(-c5cccc6ccccc56)cc4C3)cc2N1 (centres undefined) | 0.125 (≈ 0.275 µM) | 2 (≈ 4.4 µM) | 0.5 (≈ 1.1 µM) | > 128 | 8 (≈ 17.6 µM) |  |  |  |  | 
4 | O=C1CSc2ccc(C(=O)NC3CCc4nn(-c5ccnc6cc(Cl)ccc56)cc4C3)cc2N1 (centres undefined) | > 0.5 | 16 (≈ 32.7 µM) | 2 (≈ 4.08 µM) | > 128 | > 128 |  |  |  |  | 
5 | Cc1cc(-n2cc3c(n2)CCC(NC(=O)c2ccc4c(c2)NC(=O)CS4)C3)c2cc(F)ccc2n1 (centres undefined) | 0.5 (≈ 1.03 µM) | 4 (≈ 8.2 µM) | 8 (≈ 16.4 µM) | > 128 | > 128 |  |  |  |  | 
6 | COc1ccc2nccc(-n3cc4c(n3)CCC(NCc3ccc5c(c3)NCCS5)C4)c2c1 (centres undefined) | 0.0625 (≈ 0.137 µM) | 0.5 (≈ 1.09 µM) | 0.5 (≈ 1.09 µM) | 8 (≈ 17.5 µM) | 0.5 (≈ 1.09 µM) |  |  |  |  | 
7 | COc1ccc2nccc(-n3cc4c(n3)CCC(NC(=O)c3cc5c(cc3F)SCC(=O)N5)C4)c2n1 (centres undefined) | 0.125 (≈ 0.248 µM) | 0.12 (≈ 0.238 µM) | 0.25 (≈ 0.495 µM) | 128 (≈ 254 µM) | 2 (≈ 3.96 µM) | 0.007 (≈ 0.0139 µM) | 0.007 (≈ 0.0139 µM) | 0.031 (≈ 0.0614 µM) | 0.031 (≈ 0.0614 µM) | 0.015 (≈ 0.0297 µM)
8 | COc1ccc2nccc(-n3cc4c(n3)CCC(NC(=O)c3cc5c(cc3F)SCC(=O)N5)C4)c2c1 (centres undefined) | 0.25 (≈ 0.496 µM) | 8 (≈ 15.9 µM) | 0.03 (≈ 0.0596 µM) | 4 (≈ 7.94 µM) | 1 (≈ 1.99 µM) | 0.031 (≈ 0.0616 µM) | 0.015 (≈ 0.0298 µM) | 0.062 (≈ 0.123 µM) | 0.062 (≈ 0.123 µM) | 0.031 (≈ 0.0616 µM)
9 | COc1ccc2nccc(-n3cc4c(n3)CCC(NC(=O)c3c(F)cc5c(c3F)NC(=O)CS5)C4)c2c1 (centres undefined) |  | 1 (≈ 1.92 µM) | 0.125 (≈ 0.24 µM) | 8 (≈ 15.3 µM) | 1 (≈ 1.92 µM) |  |  |  |  | 
10 | COc1ccc2nccc(-n3cc4c(n3)CCC(NC(=O)c3cc5c(cc3Cl)SCC(=O)N5)C4)c2c1 (centres undefined) |  | 0.5 (≈ 0.962 µM) | < 0.125 | 2 (≈ 3.85 µM) | 2 (≈ 3.85 µM) |  |  |  |  | 
11 | COc1ccc2nccc(-n3cc4c(n3)CCC(NC(=O)c3cc5c(cc3C(F)(F)F)SCC(=O)N5)C4)c2c1 (centres undefined) | 0.25 (≈ 0.452 µM) | 1 (≈ 1.81 µM) | 0.125 (≈ 0.226 µM) | 8 (≈ 14.5 µM) | 8 (≈ 14.5 µM) |  |  |  |  | 

Second part, led by results:

Row | IC50 [1] [µg/mL] | IC50 [4] [µg/mL] | MIC (Staphylococcus aureus [6]) [µg/mL] | MIC (Escherichia coli) [µg/mL] | MIC (Streptococcus pneumoniae) [µg/mL] | SMILES | MIC (Staphylococcus aureus [2]) [µg/mL] | MIC (Staphylococcus aureus [3]) [µg/mL] | MIC (Staphylococcus aureus [5]) [µg/mL] | MIC (Staphylococcus aureus [7]) [µg/mL] | MIC (Staphylococcus aureus [8]) [µg/mL]
12 | > 1 | > 32 | 0.5 (≈ 1.09 µM) | > 128 | 8 (≈ 17.5 µM) | COc1ccc2nccc(-n3cc4c(n3)CCC(NC(=O)c3ccc5c(c3)OCCO5)C4)c2n1 (centres undefined) |  |  |  |  | 
13 |  | 4 (≈ 8.76 µM) | 2 (≈ 4.38 µM) | > 128 | 8 (≈ 17.5 µM) | COc1ccc2nccc(-n3cc4c(n3)CCC(NC(=O)c3ccc5c(c3)OCCO5)C4)c2c1 (centres undefined) |  |  |  |  | 
14 | 0.25 (≈ 0.564 µM) | 1 (≈ 2.25 µM) | 0.03 (≈ 0.0676 µM) | 32 (≈ 72.2 µM) | 0.5 (≈ 1.13 µM) | COc1ccc2nccc(-n3cc4c(n3)CCC(NCc3ccc5c(c3)OCCO5)C4)c2n1 (centres undefined) |  |  |  |  | 
15 | 1 (≈ 2.19 µM) | 4 (≈ 8.74 µM) | 1 (≈ 2.19 µM) | > 128 | 4 (≈ 8.74 µM) | COc1ccc2nccc(-n3cc4c(n3)CCC(NCc3ccc5c(c3)OCCCO5)C4)c2n1 (centres undefined) |  |  |  |  | 
16 | 0.03 (≈ 0.0654 µM) | 0.5 (≈ 1.09 µM) | < 0.125 | 8 (≈ 17.4 µM) | 0.25 (≈ 0.545 µM) | COc1ccc2nccc(-n3cc4c(n3)CCC(NCc3ccc5c(c3)NCCS5)C4)c2n1 (centres undefined) |  |  |  |  | 
17 | 0.016 (≈ 0.035 µM) | 0.06 (≈ 0.131 µM) | 1 (≈ 2.19 µM) | 2 (≈ 4.38 µM) | 2 (≈ 4.38 µM) | COc1ccc2nccc(-n3cc4c(n3)CCC(NCc3ccc5c(n3)NC(=O)CO5)C4)c2c1 (centres undefined) |  |  |  |  | 
18 | 0.25 (≈ 0.531 µM) | 1 (≈ 2.13 µM) | 0.125 (≈ 0.266 µM) | 4 (≈ 8.5 µM) | 8 (≈ 17 µM) | COc1ccc2nccc(-n3cc4c(n3)CCC(NC(=O)c3ccc5c(c3)NC(=O)CO5)C4)c2n1 (centres undefined) |  |  |  |  | 
19 | 1 (≈ 2.29 µM) | > 16 | 1 (≈ 2.29 µM) | > 128 | 8 (≈ 18.3 µM) | COc1ccc2nccc(-n3cc4c(n3)CCC(NC(=O)c3cc5ccccc5[nH]3)C4)c2c1 (centres undefined) |  |  |  |  | 
20 |  | 0.12 (≈ 0.23 µM) | < 0.125 | 2 (≈ 3.84 µM) | 4 (≈ 7.68 µM) | COc1ccc2nccc(-n3cc4c(n3)CCC(NC(=O)c3cc5c(cc3Cl)SCC(=O)N5)C4)c2n1 (centres undefined) |  |  |  |  | 
21 | 0.25 (≈ 0.442 µM) | 0.25 (≈ 0.442 µM) | 0.125 (≈ 0.221 µM) | 2 (≈ 3.54 µM) | 2 (≈ 3.54 µM) | COc1ccc2nccc(-n3cc4c(n3)CCC(NC(=O)c3cc5c(cc3Br)SCC(=O)N5)C4)c2n1 (centres undefined) |  |  |  |  | 
22 |  |  | 2 (≈ 3.87 µM) | > 16 | 16 (≈ 31 µM) | COc1ccc2nccc(-n3cc4c(n3)CCC(NC(=O)c3cc5c(cc3OC)SCC(=O)N5)C4)c2n1 (centres undefined) |  |  |  |  | 
